The subject of one data set is syncytialised BeWo cells. The data set can be described thus: CellTiter-Blue cell viability assay, syncytialised (forskolin-treated) BeWo cells. It counts as cell-based, human. Conditions: for BeWo cell death, single agent: CellTitre Blue, increasing doses, FIGS. 7B, 8B. The protocol:
(§1) JEG-3 and BeWo cells were cultured in DMEM/F-12 medium containing L-glutamine (Invitrogen) supplemented with 10% fetal calf serum (ICP Biologicals). For treatments with methotrexate (Sigma) or Gefitinib (LC Laboratories) media was replaced with media containing 1% FCS.
(§2) Viability was analysed using the CellTiter-Blue® Cell Viability Assay (Promega).
(§3) Two different placenta-derived trophoblast-like human choriocarcinoma cell lines as well as isolated human first trimester extravillous trophoblast cells were incubated with methotrexate±gefitinib at various concentrations for 72 hours. […] The viability of the JEG-3, BeWo and primary first trimester extravillous trophoblast cells after treatment with methotrexate and gefitinib was assessed by the CellTiter-Blue® Cell Viability Assay.
(§4) JEG-3, BeWo and primary first trimester trophoblast cells were seeded at 5000 cells per well in 96-well plates in DMEM/F-12 culture medium containing 1% foetal bovine serum and 1% penicillin/streptomycin and incubated at 37° C. in a humidified atmosphere of 5% CO2. Approximately 40 hours after seeding, drugs were added to the cells in DMEM/F-12 containing 1% foetal bovine serum. A dose of 100 μM of methotrexate (JEG-3 and primary first trimester trophoblast cells) and 200 μM of methotrexate (syncytialised BeWo cells) was used because this dose decreased cell viability by approximately 50%, as observed in initial dose-response experiments. Cells treated with vehicle (DMSO) served as control cells. In all figures, data are expressed as means±SEM. One-way ANOVA and Student's t test were used to compare means between experimental groups. Statistical significance was assumed at P values<0.05. All experiments have been repeated at least twice.
The effect of combined addition of methotrexate and gefitinib on cell viability of syncytialised BeWo cells is shown in FIG. 3. […] Methotrexate and gefitinib were administered to syncytialised (forskolin-treated) BeWo cells and cell viability determined after 72 hours by CellTiter-Blue assay.

For a further data set, the system named is p38 MAPK. Nature of the data set: Bio-Plex phosphoprotein assay in JEG3 cells, p38 MAPK. The class given is cell-based, human. The settings on record: FIG. 12B. The protocol: (§5) Cell lysates were analyzed for levels of phosphorylated Akt, p-38 MAPK, IκB-α or Erk1/2 using the Bio-Plex Phosphoprotein Assays (Bio-Rad Laboratories).
(§6) To further explore how these drugs may be acting together to enhance placental cell death, the inventors investigated the phosphorylation status of Akt, p38 mitogen-activated protein kinase (p38-MAPK), extracellular signal-regulated kinase 1/2 (ERK1/2) and IKappaB Kinase (IKB) in response to various treatments in JEG3 cells. These are key signaling molecules representing major downstream pathways of EGFR (Dutta PR & Maity A (2007) Cancer Lett 254:165-177).

The subject of a further data set is Akt. The data set can be described thus: Bio-Plex phosphoprotein assay in JEG3 cells, Akt. It counts as cell-based, human. The settings on record: JEG3 cells treated with EGF, FIG. 12A. The protocol:
as §5, §6

A further data set relates to IKB-α. The data set can be described thus: Bio-Plex phosphoprotein assay in JEG3 cells, IKB-α. The class given is cell-based, human. The settings on record: FIG. 12D. The protocol:
as §5, §6

Another data set relates to ERK1/2. Nature of the data set: Bio-Plex phosphoprotein assay in JEG3 cells, ERK1/2. Conditions: FIG. 12C. It counts as cell-based, human. The protocol: as §5, §6
Data set [1] relates to subcutaneous JEG3 xenografts. The data set can be described thus: Subcutaneous JEG-3 xenograft model in SCID mice. The settings on record: i.p.; for xenograft tumour volume at the doses chosen for combination: MTX 0.04 mg/dose, gefitinib 0.5 mg/dose; for xenograft tumour volume, single agent at different doses: days 7 and 13 (FIG. 11: days 7, 10 and 13), FIGS. 10A, 10B, 11. It counts as in vivo. The protocol: 5- to 6-week-old female SCID mice (C.B-17-Igh-1^b-Prkdc^scid; Animal Resources Centre, Perth, Australia) were inoculated with JEG-3 cells (10^6 in 100 μL PBS) subcutaneously. Mice were treated starting at day 7 after JEG-3 injection with gefitinib (0.5-2 mg per dose in 50 μL DMSO), methotrexate (0.04-0.4 mg per dose in 100 μL buffer) or respective vehicle (DMSO/buffer) per intraperitoneal injection (i.p.). Xenograft volume in cubic millimeters was determined using the formula (length×width^2)/2, where length was the longest axis and width was the measurement at right angles to the length. The mice were sacrificed after 19 days, at which time we excised the xenografts, weighed and measured them, and collected blood by cardiac puncture. hCG was quantified in mouse serum using the Elegance hCG ELISA assay (Bioclone). The animal study was reviewed and approved by the Monash University Animal Welfare Committee.
A subcutaneous JEG-3 xenograft model as established in SCID mice where 1×10^6 JEG-3 cells were injected into the flanks of mice.
Once palpable, xenograft growth was monitored by measuring tumour length and width every 3 days using digital callipers. Tumour volume in mm^3 was determined using the formula […], where length was the longest axis and width being the measurement at right angles to the length. Data are expressed as average tumour volume±SEM for each treatment group.
Mean tumour volume was monitored by digital calliper measurements every 3 days. Tumour volume was determined as described above.

The test system of another data set is JEG-3 cells. The data set can be described thus: CellTiter-Blue cell viability assay, JEG-3 cells. The settings on record: for JEG3 cell death, single agent: CellTitre Blue, increasing doses, 48 and 72 hours, FIGS. 7A, 8A. It counts as cell-based, human. The protocol:
as §1, §2, §3, §4

The next data set deals with JEG3 cells. Nature of the data set: xCELLigence real-time analysis of JEG3 cell growth. Conditions: for decrease in JEG3 growth (xCELLigence): FIG. 6B. It counts as cell-based, human. Here is the method: The Real-Time Cell Analyzer (RTCA) SP instrument (Roche Diagnostics GmbH) was placed in a humidified incubator maintained at 37° C. with 5% CO2. Cells were seeded at 625-40,000 cells per well in 96-well plates (E-plate 96, Roche Diagnostics GmbH) in medium containing 1% or 10% serum. Cells were initially monitored once every 2 min for 1 h and then once every hour. After addition of treatment, cells were monitored once every 10 min for 3 h and thereafter once every hour.
[…]. By taking continuous measurements, this assay also tracks cell growth longitudinally. […].

For the next data set, the target named is T1, EGFR (Homo sapiens, UniProt P00533).
T1 construct: endogenous in cells; host or cells: JEG3 cells
T1 sequence (P00533 25-1210): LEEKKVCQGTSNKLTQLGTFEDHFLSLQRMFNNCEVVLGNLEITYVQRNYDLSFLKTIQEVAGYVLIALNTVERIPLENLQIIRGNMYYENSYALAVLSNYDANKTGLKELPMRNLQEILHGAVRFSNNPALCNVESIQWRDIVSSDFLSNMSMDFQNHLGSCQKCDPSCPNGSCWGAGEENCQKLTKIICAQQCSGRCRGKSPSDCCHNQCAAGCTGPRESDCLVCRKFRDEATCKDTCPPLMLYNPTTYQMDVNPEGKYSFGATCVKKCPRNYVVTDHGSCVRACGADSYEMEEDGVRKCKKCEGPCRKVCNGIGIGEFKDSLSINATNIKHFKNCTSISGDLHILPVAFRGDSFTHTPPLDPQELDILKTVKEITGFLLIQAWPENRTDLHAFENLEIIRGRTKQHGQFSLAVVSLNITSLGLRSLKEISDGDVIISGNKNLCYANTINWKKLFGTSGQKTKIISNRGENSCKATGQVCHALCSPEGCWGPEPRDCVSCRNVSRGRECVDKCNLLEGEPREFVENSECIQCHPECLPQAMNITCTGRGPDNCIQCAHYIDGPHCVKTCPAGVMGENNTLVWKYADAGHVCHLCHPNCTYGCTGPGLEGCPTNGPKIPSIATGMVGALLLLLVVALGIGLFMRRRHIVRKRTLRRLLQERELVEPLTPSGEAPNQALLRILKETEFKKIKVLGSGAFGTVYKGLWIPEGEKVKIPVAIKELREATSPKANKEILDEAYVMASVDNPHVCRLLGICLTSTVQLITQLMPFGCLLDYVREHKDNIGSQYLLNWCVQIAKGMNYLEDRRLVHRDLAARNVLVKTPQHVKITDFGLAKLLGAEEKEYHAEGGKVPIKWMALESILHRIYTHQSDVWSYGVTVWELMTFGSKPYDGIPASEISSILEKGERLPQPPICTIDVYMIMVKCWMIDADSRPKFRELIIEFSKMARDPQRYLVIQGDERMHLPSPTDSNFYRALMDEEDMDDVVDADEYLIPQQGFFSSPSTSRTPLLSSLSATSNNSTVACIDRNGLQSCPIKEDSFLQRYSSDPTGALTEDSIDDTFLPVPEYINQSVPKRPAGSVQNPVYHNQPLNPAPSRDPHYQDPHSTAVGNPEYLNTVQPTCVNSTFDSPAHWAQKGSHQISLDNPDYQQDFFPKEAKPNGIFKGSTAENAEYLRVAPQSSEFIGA
Nature of the data set: Western blot of EGF induced EGFR phosphorylation in JEG3 cells. The class given is cell-based. Conditions: pre-incubation of JEG3 cells, FIG. 5. Here is the method: Cells were trypsinised, washed and lysed in RIPA buffer (50 mM Tris, 150 mM NaCl, 1% triton, 0.1% SDS, 1 mM EDTA, 0.1% sodium deoxycholate, protease inhibitor cocktail, sodium vanadate) for 10 min prior to 15 min sonication and centrifugation at 4° C. to remove cellular debris. Lysates were resolved by reducing SDS-PAGE and transferred to PVDF membranes using the iBlot dry transfer system (Invitrogen).

Data set [2] has as its system caspase-cleaved cytokeratin 18. The data set can be described thus: M30 antibody apoptosis assay (FACS) in JEG3 cells. The class given is cell-based, human. The settings on record: 72 hours, FIG. 13C. Here is the method: Cell suspensions were fixed in ice-cold methanol overnight at −20° C., washed in PBS and stained with M30 CytoDeath mouse monoclonal antibody (Sapphire Biosciences), followed by ALEXA® 488-conjugated anti-mouse antibody (Invitrogen). Samples were analyzed on a BD FACS Canto II analyser (BD Biosciences).
Therefore, the inventors performed FACS sorting using the M30 antibody that detects caspase-cleaved cytokeratin 18, a marker of early apoptosis which persists in cells (Ueno T et al., (2005) Biomed Pharmacother 59 Suppl 2, S359-362). […]. The inventors conclude that combination treatment may increase apoptosis in placental cells.

Data set [3] deals with primary first trimester extravillous trophoblast cells. The data set can be described thus: CellTiter-Blue cell viability assay, primary first trimester extravillous trophoblast cells. The class given is cell-based. Conditions: Homo sapiens, 100 μM methotrexate, initial dose-response experiments, read-out: decrease in cell viability.
Source text: 1st trimester placenta was collected from healthy women undergoing elective termination of pregnancy (amenorrhea: 8-10 weeks). This research protocol, including written consent from patients, was approved by the Southern Health Human Research and Ethics Committee. From the 1st trimester placental tissue, primary cytotrophoblast was isolated as previously described (Cartwright J E et al., (2002) Placenta 23:232-235). The inventors confirmed the purity of primary cytotrophoblast cells by immunocytochemistry for cytokeratin 7 as previously described (Paiva P et al., (2007) Endocrinology 148:5566-5572).
as §2
Two different placenta-derived trophoblast-like human choriocarcinoma cell lines as well as isolated human first trimester extravillous trophoblast cells were incubated with methotrexate±gefitinib at various concentrations for 72 hours. […] The viability of the JEG-3, BeWo and primary first trimester extravillous trophoblast cells after treatment with methotrexate and gefitinib was assessed by the CellTiter-Blue® Cell Viability Assay. […]
Importantly, the efficacy of methotrexate±gefitinib was also assessed in primary human extravillous trophoblast cells isolated from first trimester placenta.

In the next data set the test system is developing embryo. The settings on record: administered for 11 weeks to a person who conceived during a clinical trial; cited from earlier work.

Entries after “also recorded” stand apart in the source; their conditions may differ.

As for `COc1cc2ncnc(Nc3ccc(F)c(Cl)c3)c2cc1OCCCN1CCOCC1` [gefitinib, N-(3-chloro-4-fluorophenyl)-7-methoxy-6-(3-morpholinopropoxy)quinazolin-4-amine], the “BeWo cell death, single agent” value in the data set with syncytialised BeWo cells is given as “little or no cell death”. For the same molecule, the “EGF induced p38-MAPK phosphorylation” value in the data set with p38 MAPK was “potently blocked”. Besides, the Akt phosphorylation result in the data set on Akt was “potently blocked”. Moreover, the “EGF induced IKB-α phosphorylation” value in the data set on IKB-α was “potently blocked”. The “EGF induced ERK1/2 phosphorylation” value in the data set with ERK1/2 is recorded as “potently blocked”. Moreover, the “xenograft tumour volume at the doses chosen for combination” value in [1] was “some reduction”. In [1], the “xenograft tumour volume, single agent at different doses” value is listed as “potent dose dependent reductions; also recorded: regresses”. Besides, the “JEG3 cell death, single agent” value is recorded as “not” in the data set with JEG-3 cells and “little or no cell death” with JEG-3 cells (listed as Gefitinib). For the same molecule, the “decrease in JEG3 growth (xCELLigence)” value is “small and transient” with JEG3 cells (gefitinib 8 μM); “no” in the data set on JEG3 cells (gefitinib 2 or 4 μM).
`CN(Cc1cnc2nc(N)nc(N)c2n1)c1ccc(C(=O)N[C@@H](CCC(=O)O)C(=O)O)cc1` [methotrexate]: the “EGF induced EGFR phosphorylation” value on EGFR is “partially inhibited”. Further, in the data set on syncytialised BeWo cells, the “BeWo cell death, single agent” value is recorded as “in a dose dependent manner”. Besides, the cytotoxicity at 200 µM with syncytialised BeWo cells (Homo sapiens, 200 μM methotrexate, syncytialised BeWo cells, initial dose-response experiments, read-out: decrease in cell viability) is roughly 50%. Moreover, the “M30 staining (caspase-cleaved cytokeratin 18, early apoptosis)” value in [2] is “increased expression”. For the same molecule, in the data set on Akt, the Akt phosphorylation result is “significant increase”. In addition, the cytotoxicity at 100 µM in data set [3] is roughly 50%; in the data set with JEG-3 cells (Homo sapiens, 100 μM methotrexate, JEG-3 cells, initial dose-response experiments, read-out: decrease in cell viability), roughly 50%. The “xenograft tumour volume at the doses chosen for combination” value in [1] is given as “some reduction”. Further, the “xenograft tumour volume, single agent at different doses” value was “decrease in xenograft tumour volume was observed with increasing doses” in data set [1] (listed as MTX) and “regresses” in data set [1] (listed as Methotrexate (MTX)). The “JEG3 cell death, single agent” value is listed as “in a dose dependent manner” in the data set on JEG-3 cells (listed as MTX) and “kills JEG3 cells in a dose response manner” in the data set with JEG-3 cells (listed as methotrexate (MTX)). Also, in the data set on JEG3 cells (FIG. 6, combination: gefitinib doses added to a fixed dose of MTX), the “JEG3 cell growth (xCELLigence)” value is “decreased JEG3 cell growth in a dose dependent manner”.
In the case of `CS(=O)(=O)CCNCc1ccc(-c2ccc3ncnc(Nc4ccc(OCc5cccc(F)c5)c(Cl)c4)c3c2)o1` [lapatinib], the “effects on the developing embryo” value with developing embryo is listed as “no ill effects on the developing embryo”.

These data come from US8858939B2, “Ectopic pregnancy treatment” (Monash University, priority 2009, dated 2014).
